From US6534524B1, “Indazole compounds and pharmaceutical compositions for inhibiting protein kinases, and methods for their use” (Agouron Pharmaceuticals, Inc., priority 1999, dated 2003) come the findings set out here.

Like-named read-outs stand apart in the source and are kept apart here. Marks after values point to notes of the source that are not given here. Where only a bound is given, the exact number is not on record here.

Data set [1] can be described thus: Determination of inhibitor concentration in mouse plasma after intraperitoneal and oral dosing. To be noted: for concentration at 7 h: vehicle PEG400:H2O pH 2.3 30:70, read-out: Cmin (7 hr conc.). Format: in vivo. Summed up: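 Plasma levels quantified by HPLC or LC-MS using a standard curve prepared in mouse plasma, following ethyl acetate extraction with internal standard and sodium hydroxide. Sampling at 0.5, 1, 4 h (ocular bleed) and 7 h (cardiac puncture) after oral or intraperitoneal dosing.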

The nature of data set [2]: Human liver microsome (HLM) assay. The data set is classed as in vitro ADME. To be noted: human liver microsomes, 5 μM test compound. On the procedure: Human Liver Microsome (HLM) Assay Compound metabolism in human liver microsomes was measured by LC-MS analytical assay procedures as follows. […] (3 tubes per test compound-triplicate). […] The samples were then transferred to separate polypropylene microcentrifuge tubes and centrifuged at 14000 g for 10 min. (Fisher Micro […] M0017580). For each replicate (#1-3) at each timepoint (0 and 2 h), an aliquot sample of each test compound was combined into a single HPLC vial insert (6 total samples) for LC-MS analysis, which is described below.
On the technique in general: Liver microsomes are a subcellular fraction often used to study metabolism.

Data set [3] deals with human umbilical vein endothelial cells (HUVEC). Nature of the data set: HUVEC proliferation assay (VEGF-stimulated, MTT). Format: cell-based. The note with it: Homo sapiens, HUVEC; read-out: HUVEC IC50.
For data set [4], the target named is unphosphorylated VEGF-R2Δ50 (FLVK) (Homo sapiens, UniProt P35968, DEL940-989/E990V). Kind of data set: VEGF-R2 coupled spectrophotometric assay, unphosphorylated VEGF-R2Δ50 (FLVK). The note with it: FLVK Ki, Table 1.
unphosphorylated VEGF-R2Δ50 (FLVK), sequence (P35968 with tags, fused parts or gaps DEL940-989/E990V limits assumed): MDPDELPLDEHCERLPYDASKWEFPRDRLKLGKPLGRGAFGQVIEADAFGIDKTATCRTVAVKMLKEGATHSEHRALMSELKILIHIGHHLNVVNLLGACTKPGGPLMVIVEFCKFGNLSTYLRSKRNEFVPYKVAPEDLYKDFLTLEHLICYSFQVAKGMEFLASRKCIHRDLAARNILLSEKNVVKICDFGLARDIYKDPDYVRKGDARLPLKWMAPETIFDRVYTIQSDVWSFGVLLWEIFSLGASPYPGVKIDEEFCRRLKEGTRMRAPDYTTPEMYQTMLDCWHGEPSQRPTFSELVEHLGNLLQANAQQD
Setting [5] is: IP, 25 mg/kg, vehicle PEG400:H2O pH 2.3 30:70.
Where [6] appears, read: PO, 50 mg/kg, vehicle PEG400:H2O pH 2.3 30:70.
The mark [7] stands for this setting: PO, 25 mg/kg, vehicle PEG400:H2O pH 2.3 30:70.

Consider `C[C@@H]1C[C@H]1C(=O)Nc1cccc(C(=O)c2ccc3c(/C=C/c4ccccn4)n[nH]c3c2)c1` (racemic) [Example 41(h), 6-[3-((2-RS-trans-Methylcyclopropyl)carboxamido)benzoyl]-3-E-[2-(pyridin-2-yl)ethenyl]-1H-indazole], for which, in data set [1] (setting [5]), the AUClast is 26911 ng·h/mL; the Cmax (in general, the maximum level reached in the sampled fluid or tissue) is 16005 ng/mL; the “plasma half-life (T1/2)” value was found to be 1.2 h. In data set [1] (setting [6]), the AUClast stood at 4677 ng·h/mL, the Cmax was determined as 4080 ng/mL and the “plasma half-life (T1/2)” value is 0.7 h. Also, the concentration at 7 h in data set [1] (female, IP, 25 mg/kg) stood at 300 ng/mL. For the same molecule, in data set [1] (female, PO, 50 mg/kg), the concentration at 7 h came to 7 ng/mL. Moreover, in data set [2], the “% remain (HLM, 2 h)” value was 8%. Moreover, the IC50 – broadly, the midpoint of a concentration-inhibition curve – in data set [3] was 2 nM.

`O=C(Nc1cccc(Oc2ccc3c(/C=C/c4ccc(Cl)cc4)n[nH]c3c2)c1)c1ccccc1` [Example 6(a), N-(3-{3-[2-(4-Chloro-phenyl)-vinyl]-1H-indazol-6-yloxy}-phenyl)-benzamide]: the “% remain (HLM, 2 h)” value in data set [2] is 69* %. Further, the Ki (in general, a measure of affinity in units of concentration, obtained from inhibition or displacement) in data set [4] worked out at 0.74 nM.

Turning to `Cc1cnc(C(=O)Nc2cccc(N(C)c3ccc4c(/C=C/c5ccccc5)n[nH]c4c3)c2)s1` [Example 12(d), 5-Methyl-thiazole-2-carboxylic Acid {3-[Methyl-(3-styryl-1H-indazol-6-yl)-amino]-phenyl}-amide], the “% remain (HLM, 2 h)” value in data set [2] came to 51%. This molecule yielded a Ki in data set [4] of 0.39 nM.

As for `O=C(Nc1cccc(Nc2ccc3c(/C=C/c4ccccc4)n[nH]c3c2)c1)c1ccccc1` [Example 13, N-[3-(3-Styryl-1H-indazol-6-ylamino)-phenyl]-benzamide], in data set [2], the “% remain (HLM, 2 h)” value is reported as 69%. Besides, affinity in data set [4] was put at a Ki of 1.3 nM.

Regarding `CN(c1cccc(NC(=O)c2ccccc2)c1)c1ccc2c(/C=C/c3ccc4c(c3)OCO4)n[nH]c2c1` [Example 16(a), N-(3-{[3-(2Benzo[1,3]dioxol-5-yl-vinyl)-1H-indazol-6-yl]-methyl-amino}-phenyl)-benzanide], the “% remain (HLM, 2 h)” value in data set [2] is on record as 7* %. Besides, in data set [4], the Ki turned out to be 0.08 nM.

As for `Cc1cccc(C(=O)Nc2cccc(N(C)c3ccc4c(/C=C/c5ccc6c(c5)OCO6)n[nH]c4c3)c2)c1` [Example 16(b), N-(3-{[3-(2-Benzo[1,3]dioxol-5-yl-vinyl)-1H-indazol-6-yl]-methyl-amino}-phenyl)-3-methyl-benzamide], in data set [2], the “% remain (HLM, 2 h)” value stood at 50%. The inhibition constant Ki in data set [4] amounted to 0.34 nM.

For `Cc1cnc(C(=O)Nc2cccc(C(=O)c3ccc4c(/C=C/c5ccccc5)n[nH]c4c3)c2)s1` [Example 19(d), 5-Methyl-thiazole-2-carboxylic Acid[3-(3-styryl-1H-indazole-6-carbonyl)-phenyl]-amide], the “% remain (HLM, 2 h)” value in data set [2] came out at 36%. Moreover, affinity in data set [4] was put at a Ki of 0.72 nM.

Regarding `O=C(c1cccc(NC(=O)c2cccc3[nH]ccc23)c1)c1ccc2c(/C=C/c3ccccc3)n[nH]c2c1` [Example 19(f), 6-[3-(Indol-4-ylcarboxamido)benzoyl]-3-E-styryl-1H-indazole], in data set [2], the “% remain (HLM, 2 h)” value is recorded as 98%. The molecule also returned an inhibition constant Ki in data set [4] of 0.18 nM.

`O=C(c1cccc(NC(=O)c2cccc(Cl)n2)c1)c1ccc2c(/C=C/c3ccccc3)n[nH]c2c1` [Example 19(m), 6-[3-(6-Chloropyridin-2-ylcarboxamido)benzoyl]-3-E-styryl-1H-indazole]: the “% remain (HLM, 2 h)” value in data set [2] amounted to 61%. This molecule gave a Ki in data set [4] of 0.68 nM.

Turning to `O=C(Nc1cccc(Oc2ccc3c(/C=C/c4cccs4)n[nH]c3c2)c1)c1ccccc1` [Example 30(a), 6-[3-Benzamidophenoxy]-3-E-[2-(thien-2-yl)ethenyl]-1H-indazole], the “% remain (HLM, 2 h)” value in data set [2] came out at 64%. In data set [4], this molecule showed a Ki of 1.7 nM.

As for `O=C(Nc1cccc(Oc2ccc3c(/C=C/c4ccco4)n[nH]c3c2)c1)c1ccccc1` [Example 30(c), 6-[3-Benzamidophenoxy]-3-E-[2-(fur-2-yl)ethenyl]-1H-indazole], in data set [2], the “% remain (HLM, 2 h)” value was 54%. This molecule also registered a Ki in data set [4] of 0.83 nM.

Molecule `O=C(NCC1CC1)c1ccccc1Sc1ccc2c(/C=C/c3ccccn3)n[nH]c2c1` [Example 35(v), 6-[2-(Cyclopropylmethyl-carbamoyl)phenylsulfanyl]-3-E-[2-(pyridin-2-yl)ethenyl]-1H-indazole] yielded an AUClast in data set [1] (setting [5]) of 4865 ng·h/mL. Besides, the “plasma half-life (T1/2)” value is 0.9 h in data set [1] (setting [5]) and 1.0 h in data set [1] (setting [6]). The concentration at 7 h in data set [1] (female, IP, 25 mg/kg) was 16 ng/mL; in data set [1] (female, PO, 50 mg/kg), 26 ng/mL. In addition, the AUC(0-t) – broadly, exposure summed from dosing to a finite time, without extrapolation to infinity – in data set [1] (female, PO, 50 mg/kg, vehicle PEG400:H2O pH 2.3 30:70) was greater than 2950 ng·h/mL. Besides, the Cmax in data set [1] (female, PO, 50 mg/kg, vehicle PEG400:H2O pH 2.3 30:70, read-out: Cmax) was greater than 2000 ng/mL. Besides, the “% remain (HLM, 2 h)” value in data set [2] amounted to 26%.

On to `CCNC(=O)c1ccccc1Sc1ccc2c(/C=C/c3ccccn3)n[nH]c2c1` [Example 35(x), 6-[2-(Ethylcarbamoyl)phenylsulfanyl]-3-E-[2-(pyridin-2-yl)ethenyl]-1H-indazole], for which the AUClast in data set [1] (setting [5]) is 951 ng·h/mL; in data set [1] (setting [6]), 3516 ng·h/mL. Also, the “plasma half-life (T1/2)” value in data set [1] (setting [5]) worked out at 3.2 h; in data set [1] (setting [6]), 0.9 h. Besides, the concentration at 7 h in data set [1] (female, IP, 25 mg/kg) was 48 ng/mL; in data set [1] (female, PO, 50 mg/kg) it was 16 ng/mL. Further, the “% remain (HLM, 2 h)” value in data set [2] is recorded as 37%.

As for `O=C(Nc1nccs1)c1ccccc1Sc1ccc2c(/C=C/c3ccccn3)n[nH]c2c1` [Example 35(y), 6-[2-(Thiazol-2-ylcarbamoyl)phenylsulfanyl]-3-E-[2-(pyridin-2-yl)ethenyl]-1H-indazole], the figures for the AUClast in data set [1] (setting [5]) and in data set [1] (setting [6]) were 159 ng·h/mL and 58 ng·h/mL, respectively. Also, the “plasma half-life (T1/2)” value in data set [1] (setting [5]) and in data set [1] (setting [6]) was 1.2 h throughout. In addition, the concentration at 7 h in data set [1] (female, IP, 25 mg/kg) was determined as 2 ng/mL; in data set [1] (female, PO, 50 mg/kg), 1 ng/mL. Further, in data set [2], the “% remain (HLM, 2 h)” value was determined as 7%.

For `CCOCCNC(=O)c1ccccc1Sc1ccc2c(/C=C/c3ccccn3)n[nH]c2c1` [Example 35(z), 6-[2-(2-(Ethoxy)ethylcarbamoyl)phenylsulfanyl]-3-E-[2-(pyridin-2-yl)ethenyl]-1H-indazole], the values for the AUClast in data set [1] (setting [5]) and in data set [1] (setting [6]) were 837 ng·h/mL and 1001 ng·h/mL, respectively. Also, the “plasma half-life (T1/2)” value was determined as 1.8 h in data set [1] (setting [5]) and 1.6 h in data set [1] (setting [6]). Besides, the concentration at 7 h in data set [1] (female, IP, 25 mg/kg) worked out at 22 ng/mL; in data set [1] (female, PO, 50 mg/kg), 14 ng/mL. In addition, the “% remain (HLM, 2 h)” value in data set [2] is 2%.

In the case of `Cn1ccnc1/C=N/NC(=O)c1ccccc1Sc1ccc2c(/C=C/c3ccccn3)n[nH]c2c1` [Example 36(a)], in data set [1] (setting [7]), the AUClast stood at 605 ng·h/mL and the “plasma half-life (T1/2)” value was determined as 1.5 h. Further, the concentration at 7 h in data set [1] (female, PO, 25 mg/kg) is 17 ng/mL. Besides, in data set [2], the “% remain (HLM, 2 h)” value was found to be 58%.

For `CC(C)ONC(=O)c1cccc(F)c1Sc1ccc2c(/C=C/c3ccccn3)n[nH]c2c1` [Example 37(c), 6-[6-Fluoro-2-(isopropoxycarbamoyl)phenylsulfanyl]-3-E-[2-(pyridin-2-yl)ethenyl]-1H-indazole], in data set [1] (setting [7]), the AUClast is 2419 ng·h/mL and the “plasma half-life (T1/2)” value came to 1.2 h. In data set [1] (female, PO, 25 mg/kg), the concentration at 7 h amounted to 9 ng/mL. For the same molecule, in data set [2], the “% remain (HLM, 2 h)” value is 21%.

Turning to `COc1cccc(C(=O)Nc2cccc(C(=O)c3ccc4c(/C=C/c5ccccn5)n[nH]c4c3)c2)c1` [Example 41(bb), 6-[3-(3-Methoxybenzamido)benzoyl]-3-E-[2-(pyridin-2-yl)ethenyl]-1H-indazole], in data set [1] (setting [6]), the AUClast worked out at 2178 ng·h/mL, the Cmax turned out to be 596 ng/mL and the “plasma half-life (T1/2)” value is 2.0 h. In data set [1] (female, PO, 50 mg/kg), the concentration at 7 h came out at 75 ng/mL. The “% remain (HLM, 2 h)” value in data set [2] is 110%.

`CC(C)=CC(=O)Nc1cccc(C(=O)c2ccc3c(/C=C/c4ccccn4)n[nH]c3c2)c1` [Example 41(dd), 6-[3(3,3-Dimethylacrylamido)benzoyl]-3-E-[2-(pyridin-2-yl)ethenyl]-1H-indazole]: in data set [1] (setting [7]), the AUClast is 654 ng·h/mL and the “plasma half-life (T1/2)” value is 0.8 h. Also, the concentration at 7 h in data set [1] (female, PO, 25 mg/kg) was 1 ng/mL. Also, in data set [2], the “% remain (HLM, 2 h)” value is 7%.

`Cc1cc(C(=O)Nc2cc(C(=O)c3ccc4c(/C=C/c5ccccn5)n[nH]c4c3)ccc2C)n(C(C)C)n1` [Example 41(kk), 6-[3-((1-Isopropyl-3-methyl-1H-pyrazol-5-yl)carboxamido)-4-methylbenzoyl]-3-E-[2-(pyridin-2-yl)ethenyl]-1H-indazole]: in data set [1] (setting [7]), the AUClast was determined as 11612 ng·h/mL and the “plasma half-life (T1/2)” value came to 2.0 h. Moreover, the concentration at 7 h in data set [1] (female, PO, 25 mg/kg) was 415 ng/mL. Further, the “% remain (HLM, 2 h)” value in data set [2] was 63%.
